In patent US20230416248A1, “COMPOUNDS AND USES THEREOF” (Foghorn Therapeutics Inc., priority 2020, published 2023):
pIC50: −log10 of the molar value. Read-outs that look alike come from different tables or passages of the source.

Assays:
BRM = target: T1, BRM (Homo sapiens, UniProt P51531); test: ATPase catalytic activity of BRM, ADP-Glo in vitro biochemical assay; conditions: for pIC50: 30 nM BRM, 400 μM ATP; for Ratio* (BRG1 IC50 (μM) divided by BRM IC50 (μM)): selectivity ratio BRG1 IC50 / BRM IC50
T1 construct: made in house; host or cells: High Five insect cells
T1 sequence (P51531 whole entry): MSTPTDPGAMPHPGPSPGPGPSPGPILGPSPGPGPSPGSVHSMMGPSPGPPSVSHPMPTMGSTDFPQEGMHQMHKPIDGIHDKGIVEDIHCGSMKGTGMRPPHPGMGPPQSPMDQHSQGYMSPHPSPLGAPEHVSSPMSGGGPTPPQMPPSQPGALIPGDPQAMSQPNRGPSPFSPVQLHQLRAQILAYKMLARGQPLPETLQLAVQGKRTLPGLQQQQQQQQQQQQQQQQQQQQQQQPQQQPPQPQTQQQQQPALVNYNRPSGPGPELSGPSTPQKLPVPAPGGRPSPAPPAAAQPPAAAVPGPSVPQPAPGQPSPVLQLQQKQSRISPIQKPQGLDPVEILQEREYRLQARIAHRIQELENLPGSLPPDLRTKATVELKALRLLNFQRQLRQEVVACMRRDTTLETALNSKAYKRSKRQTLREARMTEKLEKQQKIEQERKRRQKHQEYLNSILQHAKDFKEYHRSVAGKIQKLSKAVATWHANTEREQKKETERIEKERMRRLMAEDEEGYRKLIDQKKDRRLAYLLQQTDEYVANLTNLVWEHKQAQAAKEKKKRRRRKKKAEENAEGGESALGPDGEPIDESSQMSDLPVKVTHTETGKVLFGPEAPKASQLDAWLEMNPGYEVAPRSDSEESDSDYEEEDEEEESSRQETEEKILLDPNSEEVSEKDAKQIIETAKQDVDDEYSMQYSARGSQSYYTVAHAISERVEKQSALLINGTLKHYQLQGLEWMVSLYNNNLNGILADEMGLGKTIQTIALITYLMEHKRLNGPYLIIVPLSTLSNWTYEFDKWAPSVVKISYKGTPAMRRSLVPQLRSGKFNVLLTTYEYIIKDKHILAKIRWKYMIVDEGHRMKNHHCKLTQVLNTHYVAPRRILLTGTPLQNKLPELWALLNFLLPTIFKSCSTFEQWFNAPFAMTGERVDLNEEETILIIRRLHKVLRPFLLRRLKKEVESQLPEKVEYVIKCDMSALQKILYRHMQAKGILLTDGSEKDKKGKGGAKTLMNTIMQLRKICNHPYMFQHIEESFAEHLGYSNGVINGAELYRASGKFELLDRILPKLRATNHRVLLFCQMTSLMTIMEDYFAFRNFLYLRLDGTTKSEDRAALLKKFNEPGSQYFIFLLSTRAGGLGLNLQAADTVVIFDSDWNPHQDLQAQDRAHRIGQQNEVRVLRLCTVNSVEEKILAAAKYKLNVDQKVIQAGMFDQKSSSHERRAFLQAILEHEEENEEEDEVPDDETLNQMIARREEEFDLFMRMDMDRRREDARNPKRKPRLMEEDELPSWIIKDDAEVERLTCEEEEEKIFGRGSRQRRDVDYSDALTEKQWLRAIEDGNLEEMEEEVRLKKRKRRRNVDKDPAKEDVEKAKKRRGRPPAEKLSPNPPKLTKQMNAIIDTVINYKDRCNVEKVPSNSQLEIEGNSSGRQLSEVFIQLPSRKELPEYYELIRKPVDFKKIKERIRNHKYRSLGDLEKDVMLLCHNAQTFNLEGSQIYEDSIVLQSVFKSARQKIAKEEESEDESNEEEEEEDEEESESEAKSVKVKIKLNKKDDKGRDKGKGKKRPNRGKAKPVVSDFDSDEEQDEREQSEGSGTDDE
How it was run: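 Recombinant BRM (30 nM) hydrolysed 400 μM ATP with 20 nM salmon sperm DNA in pH 8 Tris buffer containing 20 mM MgCl2, 50 mM NaCl, 0.1% Tween-20 and 1 mM DTT, 1 h at room temperature. ADP formed was quantified by ADP-Glo luminescence.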

BRG-1 = target: T2, BRG-1 (Homo sapiens, UniProt P51532); test: ATPase catalytic activity of BRG-1, ADP-Glo in vitro biochemical assay; conditions: 30 nM BRG-1, 400 μM ATP, read-out: BRG1 IC50
T2 construct: made in house; host or cells: High Five insect cells
T2 sequence (P51532 whole entry): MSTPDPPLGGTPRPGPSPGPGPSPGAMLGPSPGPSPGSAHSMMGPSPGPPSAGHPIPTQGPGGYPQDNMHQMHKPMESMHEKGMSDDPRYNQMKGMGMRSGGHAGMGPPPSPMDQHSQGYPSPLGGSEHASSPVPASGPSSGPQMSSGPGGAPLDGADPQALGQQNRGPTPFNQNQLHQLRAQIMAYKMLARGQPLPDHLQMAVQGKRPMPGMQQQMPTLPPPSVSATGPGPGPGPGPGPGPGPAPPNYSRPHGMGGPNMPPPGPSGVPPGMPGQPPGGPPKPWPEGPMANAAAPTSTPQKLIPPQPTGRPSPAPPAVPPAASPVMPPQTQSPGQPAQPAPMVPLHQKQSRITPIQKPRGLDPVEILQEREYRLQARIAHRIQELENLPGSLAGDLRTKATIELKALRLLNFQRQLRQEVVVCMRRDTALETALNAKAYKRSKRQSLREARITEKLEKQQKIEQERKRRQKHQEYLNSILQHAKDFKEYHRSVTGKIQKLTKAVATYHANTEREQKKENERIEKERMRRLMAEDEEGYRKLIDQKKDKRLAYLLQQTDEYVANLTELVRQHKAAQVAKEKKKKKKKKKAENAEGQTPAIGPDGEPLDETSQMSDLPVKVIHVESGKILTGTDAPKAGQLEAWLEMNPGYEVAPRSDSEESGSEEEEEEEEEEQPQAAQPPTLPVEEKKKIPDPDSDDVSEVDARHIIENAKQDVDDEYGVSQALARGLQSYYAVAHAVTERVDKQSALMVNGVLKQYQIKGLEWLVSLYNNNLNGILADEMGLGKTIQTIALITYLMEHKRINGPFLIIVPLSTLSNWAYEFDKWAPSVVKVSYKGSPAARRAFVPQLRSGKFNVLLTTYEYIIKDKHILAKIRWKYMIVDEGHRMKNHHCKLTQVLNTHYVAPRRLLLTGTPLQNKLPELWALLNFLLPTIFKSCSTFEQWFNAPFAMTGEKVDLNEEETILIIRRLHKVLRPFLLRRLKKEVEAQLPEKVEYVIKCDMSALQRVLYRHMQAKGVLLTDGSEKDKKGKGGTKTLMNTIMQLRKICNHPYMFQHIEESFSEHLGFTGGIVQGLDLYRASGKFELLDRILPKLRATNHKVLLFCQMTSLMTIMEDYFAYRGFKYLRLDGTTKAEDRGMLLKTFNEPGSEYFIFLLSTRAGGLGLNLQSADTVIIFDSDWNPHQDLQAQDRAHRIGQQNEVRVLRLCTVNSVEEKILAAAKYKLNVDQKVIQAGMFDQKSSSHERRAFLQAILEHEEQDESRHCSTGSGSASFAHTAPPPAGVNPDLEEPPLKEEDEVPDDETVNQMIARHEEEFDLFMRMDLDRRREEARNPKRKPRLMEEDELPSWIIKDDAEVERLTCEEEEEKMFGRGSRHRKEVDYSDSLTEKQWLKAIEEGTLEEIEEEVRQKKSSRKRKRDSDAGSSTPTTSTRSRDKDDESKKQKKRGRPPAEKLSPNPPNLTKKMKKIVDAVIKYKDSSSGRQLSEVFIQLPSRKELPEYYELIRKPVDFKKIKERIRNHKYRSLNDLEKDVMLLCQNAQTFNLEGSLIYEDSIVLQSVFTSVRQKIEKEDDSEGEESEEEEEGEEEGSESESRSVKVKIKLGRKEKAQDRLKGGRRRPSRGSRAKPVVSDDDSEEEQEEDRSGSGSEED
How it was run: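 Biochemical ADP-Glo assay, BRG-1. Post-reaction: ATP depletion reagent, 40 min RT; ADP→ATP conversion/detection reagent, 60 min RT; luminescence read on plate luminometer.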

[1] = ATPase catalytic activity, ADP-Glo

Row | Structure (SMILES) | pIC50 (BRM; ADP-Glo ATPase assay) | Ratio* (BRM; ratio BRG1 IC50 / BRM IC50) | pIC50 (BRG-1; ADP-Glo ATPase assay) | Ratio* (BRG1 IC50 (μM) divided by BRM IC50 (μM)) (BRM) | pIC50 (BRM; [1]) | Ratio* (BRM; ratio of BRG1 IC50 to BRM IC50) | pIC50 (BRG-1; [1])
1 | C[C@@H]1CN(c2nccc(-c3ccc4cnc(CNC(=O)c5ccc(C(F)F)c(S(C)(=O)=O)c5)cc4n3)n2)C[C@H](C)O1 [Compound 157] | 7.84 |  | 6.50 | 21.99 |  |  | 
2 | O=C(NCc1cc2nc(N3CCCc4c(Cl)ccnc43)ccc2cn1)c1ccc2c(c1)S(=O)(=O)CCOC2 [Compound 478] |  |  |  |  | 7.59 | 9.80 | 6.60
3 | C[C@@H]1CN(c2cccc(-c3ccc4cnc(CNC(=O)c5ccc6c(c5)S(=O)(=O)[C@H](C)COC6)cc4n3)n2)C[C@H](C)O1 [Compound 159] | 7.44 |  | 6.39 | 11.15 |  |  | 
4 | O=C(NCc1cc2nc(N3CCCc4ccc(OCC5CCCO5)cc43)ccc2cn1)c1ccc2c(c1)S(=O)(=O)CCOC2 (stereo not drawn) [Compound 747] | 8.06 | 13.42 | 6.93 |  |  |  | 
5 | CC(=O)N1CCOc2c(-c3ccc4cnc(CNC(=O)c5ccc6c(c5)S(=O)(=O)CCOC6)cc4n3)cccc21 [Compound 185] | 6.45 |  | 5.87 | 3.75 |  |  | 
6 | CCO[C@H](C)c1ccc2c(n1)N(c1ccc3cnc(CNC(=O)c4ccc5c(c4)S(=O)(=O)CCOC5)cc3n1)CCC2 [Compound 636] |  |  |  |  | 6.57 | 15.73 | 5.37
7 | Cc1cnc2c(c1)OCCN2c1ccc2cnc(CNC(=O)c3cc(F)c4c(c3)S(=O)(=O)[C@@H](C)COC4)cc2n1 [Compound 554] |  |  |  |  | 8.07 | 9.64 | 7.08
8 | C[C@@H]1CN(c2cccc(-c3ccc4cnc(CNC(=O)c5ccc6c(c5)S(=O)(=O)CC[C@H](C5CC5)O6)cc4n3)n2)C[C@H](C)O1 [Compound 435] |  |  |  |  | 6.64 | 18.45 | 5.37
9 | C[C@@H]1CN(c2cccc(-c3ccc4cnc(CNC(=O)c5cc(Cl)c6c(c5)S(=O)(=O)CC[C@H](C)O6)cc4n3)n2)C[C@H](C)O1 [Compound 506] |  |  |  |  | 7.31 | 13.12 | 6.19
10 | CO[C@H]1C[C@@H]1N(C)c1cccc(-c2ccc3cnc(CNC(=O)c4ccc5c(c4)S(=O)(=O)[C@@H](C)COC5)cc3n2)n1 [Compound 670] |  |  |  |  | 8.00 | 8.79 | 7.05
11 | COc1cc(C(F)(F)F)ccc1-c1ccc2cnc(CNC(=O)c3ccc4c(c3)S(=O)(=O)CCOC4)cc2n1 [Compound 335] |  |  |  |  | 7.61 | 11.87 | 6.54
12 | C[C@@H]1CN(c2ccc(F)c(-c3ccc4cnc(CNC(=O)c5ccc6c(c5)S(=O)(=O)CCOC6)cc4n3)n2)C[C@H](C)O1 [Compound 166] | 7.77 |  | 6.69 | 12.29 |  |  | 
13 | COc1nc(C(C)(F)F)ccc1-c1ccc2cnc(CNC(=O)c3ccc4c(c3)S(=O)(=O)[C@@H](C)COC4)cc2n1 [Compound 542] |  |  |  |  | 7.77 | 13.60 | 6.64
14 | O=C(NCc1cc2nc(-c3ccc(Cl)c(OC(F)F)n3)ccc2cn1)c1ccc2c(c1)S(=O)(=O)CCOC2 [Compound 327] |  |  |  |  | 7.72 | 15.15 | 6.54
15 | [2H]C1([2H])OC([2H])([2H])[C@H](C)S(=O)(=O)c2cc(C(=O)NCc3cc4nc(-c5cccc(N6C[C@@H](C)O[C@@H](C)C6)n5)ccc4cn3)ccc21 [Compound 715] | 8.27 | 4.12 | 7.66 |  |  |  | 
16 | O=C(NCc1cc2nc(N3CCOc4cc(C5CC5)c(F)c(F)c43)ccc2cn1)c1ccc2c(c1)S(=O)(=O)CCOC2 [Compound 805] | 7.58 | 11.56 | 6.52 |  |  |  | 
17 | Cn1ccc2c(-c3ccc4cnc(CNC(=O)c5ccc6c(c5)S(=O)(=O)CCOC6)cc4n3)ccnc21 [Compound 151] | 7.22 |  | 6.17 | 11.00 |  |  | 
18 | O=C(NCc1cc2nc(-c3cccc4c3OCC[C@H]4OC3COC3)ccc2cn1)c1ccc2c(c1)S(=O)(=O)CCOC2 [Compound 409] |  |  |  |  | 7.78 | 8.58 | 6.85
19 | COCCOc1cc(C(F)F)ccc1-c1ccc2cnc(CNC(=O)c3ccc4c(c3)S(=O)(=O)CCOC4)cc2n1 [Compound 366] |  |  |  |  | 6.49 | 9.14 | 5.53
20 | COc1nn([C@H]2C[C@@H](F)C2)cc1-c1ccc2cnc(CNC(=O)c3ccc4c(c3)S(=O)(=O)CCOC4)cc2n1 [Compound 148] | 6.34 |  | 5.51 | 6.80 |  |  | 
21 | Cc1ccc(C(=O)NCc2cc3nc(-c4cccc(N5C[C@@H](C)O[C@@H](C)C5)n4)ccc3cn2)cc1S(C)(=O)=O [Compound 195] | 8.43 |  | 7.50 | 8.49 |  |  | 

More lines, now with the values ahead:

Row | pIC50 (BRM; ADP-Glo ATPase assay) | Ratio* (BRM; ratio BRG1 IC50 / BRM IC50) | pIC50 (BRG-1; ADP-Glo ATPase assay) | Ratio* (BRG1 IC50 (μM) divided by BRM IC50 (μM)) (BRM) | pIC50 (BRM; [1]) | Ratio* (BRM; ratio of BRG1 IC50 to BRM IC50) | pIC50 (BRG-1; [1]) | Structure (SMILES)
22 | 7.90 | 16.24 | 6.69 |  |  |  |  | O=C(NCc1cc2nc(N3CCOc4cnc(C5CC5)c(F)c43)ccc2cn1)c1ccc2c(c1)S(=O)(=O)CCOC2 [Compound 853]
23 | 7.56 | 4.35 | 6.92 |  |  |  |  | Cc1ccnc2c1CCN2c1ccc2cnc(CNC(=O)c3ccc4c(c3)S(=O)(=O)CCOC4)cc2n1 [Compound 743]
24 |  |  |  |  | 7.84 | 10.43 | 6.82 | CCN(CC1COC1)c1cccc(-c2ccc3cnc(CNC(=O)c4ccc5c(c4)S(=O)(=O)CCOC5)cc3n2)n1 [Compound 370]
25 | 6.36 |  | 5.75 | 4.10 |  |  |  | CN1CCc2nc(-c3ccc4cnc(CNC(=O)c5ccc6c(c5)S(=O)(=O)CCOC6)cc4n3)ccc21 [Compound 176]
26 |  |  |  |  | 8.01 | 19.48 | 6.72 | Cc1cnc2c(c1)OCCN2c1ccc2cnc(CNC(=O)c3cc(Cl)c4c(c3)S(=O)(=O)CCOC4)cc2n1 [Compound 552]
27 |  |  |  |  | 7.13 | 12.76 | 6.02 | C[C@H](C1COC1)N(C)c1cccc(-c2ccc3cnc(CNC(=O)c4ccc5c(c4)S(=O)(=O)CCOC5)cc3n2)n1 [Compound 470]
28 | 6.66 |  | 5.38 | 18.63 |  |  |  | O=C(NCc1cc2nc(-c3cccc(Cl)c3)ccc2cn1)c1ccc2c(c1)S(=O)(=O)CCOC2 [Compound 258]
29 | 6.85 |  | 5.69 | 14.47 |  |  |  | CN1CCCc2ccc(C(=O)NCc3cc4nc(-c5cncc(C6CC6)n5)ccc4cn3)cc2S1(=O)=O [Compound 297]
30 |  |  |  |  | 6.41 | 6.28 | 5.61 | COC[C@H](NC(=O)c1ccc2c(c1)S(=O)(=O)CCOC2)c1cc2nc(-c3cccc(C4CC4)n3)ccc2cn1 [Compound 507]
31 | 7.49 |  | 6.54 | 9.02 |  |  |  | CN(c1cccc(-c2ccc3cnc(CNC(=O)c4ccc5c(c4)S(=O)(=O)CCOC5)cc3n2)n1)C1CC1 [Compound 94]
32 | 7.37 | 13.62 | 6.24 |  |  |  |  | COc1cc2c(cn1)N(c1ccc3cnc(CNC(=O)c4ccc5c(c4)S(=O)(=O)CCOC5)cc3n1)CCC2 [Compound 719]
33 |  |  |  |  | 7.88 | 8.58 | 6.95 | O=C(NCc1cc2nc(N3CCOc4cc(C5CC5)ccc43)ccc2cn1)c1ccc2c(c1)S(=O)(=O)CCOC2 [Compound 481]
34 |  |  |  |  | 7.44 | 4.71 | 6.76 | C[C@H]1Cc2ccc(-c3ccc4cnc(CNC(=O)c5ccc6c(c5)S(=O)(=O)CCOC6)cc4n3)nc2N(C)C1 [Compound 662]
35 | 7.47 |  | 6.36 | 12.93 |  |  |  | O=C(NCc1cc2nc(-c3cncc(C4CC4)n3)ccc2cn1)c1ccc2c(c1)S(=O)(=O)COCC2 [Compound 236]
36 | 7.15 |  | 6.23 | 8.41 |  |  |  | O=C(NCc1cc2cc(-c3cncc(C4CC4)n3)ccc2cn1)c1cnc2c(c1)S(=O)(=O)CCOC2 [Compound 248]
37 | 8.27 |  | 7.80 | 2.91 |  |  |  | O=C(NCc1cc2nc(-c3cccc(N4CCCC(F)(F)C4)n3)ccc2cn1)c1ccc2c(c1)S(=O)(=O)CCOC2 [Compound 308]
38 | 7.37 |  | 6.42 | 8.84 |  |  |  | O=C(NCc1cc2nc(-c3cccc(C4(C(F)F)CC4)n3)ccc2cn1)c1ccc2c(c1)S(=O)(=O)CCOC2 [Compound 208]
39 | 7.01 |  | 6.26 | 5.63 |  |  |  | CN1CCOc2c(-c3ccc4cnc(CNC(=O)c5ccc6c(c5)S(=O)(=O)CCOC6)cc4n3)ccnc21 [Compound 58]
40 | 8.33 |  | 7.34 | 9.62 |  |  |  | C[C@@H]1CN(c2cccc(-c3cnc4cnc(CNC(=O)c5ccc6c(c5)S(=O)(=O)CCOC6)cc4c3)n2)C[C@H](C)O1 [Compound 161]
41 |  |  |  |  | 8.24 | 10.00 | 7.24 | O=C(NCc1cc2nc(-c3cccc(N4CC(C5COC5)C4)n3)ccc2cn1)c1ccc2c(c1)S(=O)(=O)CCOC2 [Compound 604]
42 | 6.36 |  | 5.68 | 4.81 |  |  |  | O=C(NCc1cc2nc(-c3ccc4c(n3)OCC4)ccc2cn1)c1ccc2c(c1)S(=O)(=O)CCOC2 [Compound 139]
43 | 6.76 |  | 5.91 | 7.19 |  |  |  | O=C(NCc1cc2c(cn1)CCN(c1cncc(C3CC3)n1)C2)c1ccc2c(c1)S(=O)(=O)CCOC2 [Compound 290]
